Reference: patent US20220362386A1, “LIQUID COMPOSITIONS COMPRISING A LEVODOPA AMINO ACID CONJUGATE AND USES THEREOF” (NeuroDerm, Ltd., priority 2019, published 2022)
Structures can show the parent of a compound that is named as a salt. Where two headings read alike, the source gives them in different places. Non-standard residues stand in square brackets, D forms with d. Residues, ends and D or L forms follow the SMILES beside them. Dopa = N[C@@H](Cc1ccc(O)c(O)c1)C(=O)O

Columns and labels:
in vitro = details: human
Procedure: Caco-2 cells are human intestinal epithelial cells derived from a colorectal adenocarcinoma.
The assays are performed in both the apical to basolateral (A-B) and the B-A direction. The test compound is prepared at 10 μM in HBSS-HEPES (pH 7.4) with a final DMSO concentration of 1%. The working solution is centrifuged, and the supernatant is added to the donor side. The assay plate is incubated at 37° C. with gentle shaking for 60 min or 40 min for the A-B or B-A assay, respectively. For Pgp substrate assessment, the assays are run with and without 100 μM verapamil on both the A and B sides. For BCRP substrate assessment, the assays are run with and without 10 μM Ko143 on both the A and B sides. For MRP2 substrate assessment, the assays are run with and without 100 μM MK571 on both the A and B sides. Samples are aliquoted from the donor side at time zero and the end point, and from the receiver side at the end point.
Propranolol (highly permeable), labetalol (moderately permeable), ranitidine (poorly permeable), and colchicine (P-glycoprotein substrate), estrone-3-sulfate (BCRP substrate), or CDCF (MRP2 substrate) are included in each assay.
Samples are analyzed by HPLC-MS/MS using selected reaction monitoring. The HPLC system consists of a binary LC pump with an autosampler, a C-18 column, and a gradient. Conditions may be adjusted when necessary.
Fluorescein permeability is assessed in the A-B direction at pH 7.4 on both sides after the permeability assay with the test compound. The cell monolayer with a fluorescein permeability of less than 1.5×10−6 cm/s is considered intact.
The apparent permeability coefficient (Papp) of the test compound and its recovery are calculated as follows: […]
A is the surface area of the cell monolayer (0.11 cm^2). C is concentration of the test compound, expressed as peak area. D denotes donor and R is receiver. 0, mid, and end denote time zero, mid-point, and end of the incubation. Δt is the incubation time. V is the volume of the donor or receiver.
The permeability capabilities of the several LDAA compounds, in their TFA salt form, were determined using the Caco-2 B-A method.

P-gp = experiment: In-vitro absorption, Caco-2 A-B permeability; type: in vitro ADME, human; details: human, Caco-2, pH 7.4, with verapamil 100 μM on both the A and B sides, Caco-2 A-B, in the presence of verapamil
Procedure: (§1) Conditions may be adjusted when necessary.
(§2) D denotes donor and R is receiver. […] V is the volume of the donor or receiver.
(§3) The test was performed with and without verapamil, which is a permeation inhibitor, and the results are presented in Tables 22 (without verapamil) and 34 (with verapamil).

[1] = In-vitro absorption, Caco-2 A-B permeability; type: in vitro ADME, human; details: human, Caco-2, pH 7.4, Caco-2 A-B, without verapamil; for Papp A→B at 60 min, 10 μM: 1.0E−05M
Procedure: as §1, §2, §3

[2] = In-vitro metabolism of LDAA compounds using liver microsomes; type: in vitro ADME, human; details: for half-life at 0.1 μM: pH 7.4, 1.0E−07M, 0.1 mg/mL microsomal protein
Procedure: The stability of test compounds in pooled human liver microsomes was determined on 96-well plates, wherein the test compounds were quantified at five time points by HPLC-MS/MS analysis. The assay matrix included mixed gender and a pool of 50 human liver microsomes, wherein the final microsomal protein concentration was 0.1 mg/mL. The test concentration was 0.1 μM with 0.01% DMSO, 0.25% acetonitrile and 0.25% methanol.
Each test compound was pre-incubated for five minutes with pooled liver microsomes in phosphate buffer (pH 7.4) in a 37° C. shaking water-bath. The reaction was initiated by adding a nicotinamide adenine dinucleotide phosphate (NADPH)-generating system and incubating for 0, 15, 30, 45, and 60 min. The reaction was stopped by transferring the incubation mixture to acetonitrile/methanol. Samples were then mixed and centrifuged, wherein the supernatants were used for HPLC-MS/MS analysis.
In each assay the four reference compounds propranolol, imipramine, verapamil and terfenadine were tested, wherein the propranolol and the imipramine are known to be relatively stable, while the verapamil and the terfenadine are known to be readily metabolized in human liver microsomes.
All samples were analyzed by HPLC-MS/MS using selected reaction monitoring. The HPLC system consisted of a binary LC pump with autosampler, a C-18 column, and a gradient. The conditions were adjusted when necessary.
Peak areas corresponding to the test compound were recorded. The amount of each compound remaining was calculated by comparing the peak area at each time point to time zero. The half-life is calculated from the slope of the initial linear range of the logarithmic curve of compound remaining (%) vs. time, assuming first order kinetics. In addition, the intrinsic clearance (Clint) was calculated from the half-life using the following equation:
Clint(μL/min/mg protein)=0.693/(t1/2×protein concentration)
The results of the in-vitro human liver microsome metabolism tests of various LDAA compounds (10^−7M), in their TFA salt forms, are provided in FIG. 1 and in Table 17, which presents the % of the compound remaining at times 0, 15, 30, 45 and 60 minutes, two half-life measurements and the Clint, calculated as detailed above.

physchem = type: physicochemical
Procedure: The volume of the solution in the bottle was adjusted to 5 ml, either by adding solvent, or be removing any residual solution, after which the bottle was tightly closed and left at 25° C. for stability observation. It is noted that throughout Example 4, the concentrations in the tables below were calculated taking into account the amount of solvent added or the solution removed, in which event, the calculations were performed regarding the 5 ml+(amount removed) as the volume of the solution. It is further noted that throughout this document, unless mentioned otherwise, the stability was measured using the manual visual inspection Bosch apparatus MIH DX, at a magnification of ×1.75.
(§4) The LD-Tyr free base, prepared according to Example 2, was added to a solvent, as detailed in Table 7 below, and neutralized by addition of NaOH. When maximum solubility was observed, the solution was filtered and then transferred to a bottle that was previously weighed and flushed with nitrogen. The volume of the solution in the bottle was adjusted to 5 ml, after which the bottle was tightly closed and left at 25° C. for stability observation.
(§5) When maximum solubility was observed, the solution was filtered and then transferred to a bottle that was previously weighed and flushed with nitrogen. The volume of the solution in the bottle was adjusted to 5 ml, after which the bottle was tightly closed and left at 25° C. for stability observation.
as §5, with “stored” for “left”
as §5, with “stored” for “left”
as §4, with “LD-Lys TFA salt,” for “The LD-Tyr free base,”, “1, and which comprises two equivalents of TFA,” for “2,”, “11” for “7”, “stored” for “left”
as §5, with “As detailed above regarding other solutions, with the LD-Tyr free base when” for “When”
as §4, with “LD-Lys HCl salt,” for “The LD-Tyr free base,”, “3,” for “2,”, “13” for “7”, “by the” for “by”

[3] = read-out: Percent Recovery Mean
[4] = incubation time 0 minutes, 1.0E−07M
[5] = incubation time 15 minutes, 1.0E−07M
[6] = incubation time 30 minutes, 1.0E−07M
[7] = incubation time 45 minutes, 1.0E−07M
[8] = incubation time 60 minutes, 1.0E−07M
[9] = solvent 0.63% CD solution, pH 7.71
[10] = solvent 0.75% CD solution, pH 8.65

In the case of `N[C@@H](Cc1ccc(O)c(O)c1)C(=O)NCC(=O)O` [LD-Gly TFA salt, Levodopa Glycine TFA Salt], the recovery at 40 min, 10 μM (in vitro; Caco-2, pH 7.4, Percent Recovery 1st) is reported as 93%, the recovery at 40 min, 10 μM (in vitro; Caco-2, pH 7.4, Percent Recovery 2nd) is reported as 78% and the recovery at 40 min, 10 μM (in vitro; Caco-2, pH 7.4, Percent Recovery Mean) is reported as 85%. For the same compound, the Papp B→A at 40 min, 10 μM (in vitro; Caco-2, pH 7.4, Permeability 1st) was 0.38 ×10⁻⁶ cm/s, the Papp B→A at 40 min, 10 μM (in vitro; Caco-2, pH 7.4, Permeability 2nd) was 0.33 ×10⁻⁶ cm/s and the Papp B→A at 40 min, 10 μM (in vitro; Caco-2, pH 7.4, Permeability Mean) was 0.4 ×10⁻⁶ cm/s. For the same compound, the recovery at 60 min, 10 μM (P-gp; read-out: Percent Recovery 1st) was 60%, the recovery at 60 min, 10 μM (P-gp; read-out: Percent Recovery 2nd) was 59% and the recovery at 60 min, 10 μM (P-gp; [3]) was 59%. It also gave a Papp A→B at 60 min, 10 μM ([1]; read-out: Permeability 1st) of 0.03 ×10⁻⁶ cm/s, a Papp A→B at 60 min, 10 μM ([1]; read-out: Permeability 2nd) of 0.02 ×10⁻⁶ cm/s and a recovery at 60 min, 10 μM ([1]; read-out: Percent Recovery 1st) of 65%. For the same compound, the recovery at 60 min, 10 μM ([1]; read-out: Percent Recovery 2nd) was 62%, the recovery at 60 min, 10 μM [1, 3] was 64% and the half-life at 0.1 μM ([2]; both sexes, human, pooled human liver microsomes, read-out: Half-Life (minute) 1st) was 54.5 min. It also gave a half-life at 0.1 μM ([2]; both sexes, human, pooled human liver microsomes, read-out: Half-Life (minute) 2nd) of 54.1 min, a half-life at 0.1 μM ([2]; both sexes, human, pooled human liver microsomes, read-out: Half-Life (minute) Mean) of 54 min and a microsomal CLint at 0.1 μM ([2]; both sexes, human, pooled human liver microsomes, pH 7.4, calculated from the half-life, 1.0E−07M) of 128 µL/min/mg. The “% Compound Remaining 1st” value [2, 4] was 100%, the “% Compound Remaining 2nd” value [2, 4] was 100% and the “% Compound Remaining Mean” value [2, 4] was 100%. For the same compound, the “% Compound Remaining 1st” value [2, 5] was 103.7%, the “% Compound Remaining 2nd” value [2, 5] was 108.1% and the “% Compound Remaining Mean” value [2, 5] was 106%. For the same compound, the “% Compound Remaining 1st” value [2, 6] was 86.7%, the “% Compound Remaining 2nd” value [2, 6] was 77.9% and the “% Compound Remaining Mean” value [2, 6] was 82%. The “% Compound Remaining 1st” value [2, 7] was 57.5%, the “% Compound Remaining 2nd” value [2, 7] was 56.4% and the “% Compound Remaining Mean” value [2, 7] was 57%. The “% Compound Remaining 1st” value [2, 8] was 51.7%, the “% Compound Remaining 2nd” value [2, 8] was 52.9% and the “% Compound Remaining Mean” value [2, 8] was 52%.

With `N=C(N)NCCC[C@H](NC(=O)[C@@H](N)Cc1ccc(O)c(O)c1)C(=O)O` [LD-Arg HCl salt] the Appearance (physchem; 0.2% NaBis in WFI, pH 7.02, 550 mg/ml salt) was “clear”, the Appearance (physchem; 0.63% CD solution, pH 7.71, 520 mg/ml salt) was “clear” and the solubility thermodynamic (physchem; 25 °C, aqueous buffer, thermodynamic from solid, solvent 0.2% NaBis in WFI, pH 7.02) was 550 mg/mL. The Appearance (physchem; WFI, pH 7.3, 500 mg/ml salt) was “clear”, the “LD-Arg free base Concentration” value (physchem; solvent 0.2% NaBis in WFI, pH 7.02) was 440 mg/mL and the “LD-Arg HCl salt concentration” value (physchem; [9]) was 520 mg/mL. The “LD-Arg free base Concentration” value (physchem; [9]) was 420 mg/mL, the “LD-Arg HCl salt concentration” value (physchem; solvent WFI, pH 7.3) was 500 mg/mL and the “LD-Arg free base Concentration” value (physchem; solvent WFI, pH 7.3) was 390 mg/mL.

With `N[C@@H](Cc1ccc(O)c(O)c1)C(=O)N[C@@H](Cc1ccc(O)cc1)C(=O)O` [LD-Tyr HCl salt] (H-[Dopa]-Tyr-OH) the Appearance (physchem; 0.75% CD solution, pH 8.65, 297 mg/ml salt) was “clear”, the Appearance (physchem; WFI, pH 8.46, 300 mg/ml salt) was “clear” and the “LD-Tyr HCl salt concentration” value (physchem; [10]) was 297 mg/mL. The “LD-Tyr free base Concentration” value (physchem; [10]) was 257 mg/mL, the “LD-Tyr HCl salt concentration” value (physchem; solvent WFI, pH 8.46) was 300 mg/mL and the “LD-Tyr free base Concentration” value (physchem; solvent WFI, pH 8.46) was 260 mg/mL.
